Source: patent US11865176B2, “Compositions and methods of modulating anti-tumor immunity” (Dana-Farber Cancer Institute, Inc., priority 2016, dated 2024)

System: PD-1-overexpressing Jurkat cells
Assay: Small molecule screen: IL2 secretion (AlphaLISA) from stimulated PD-1-overexpressing Jurkat cells
Format: cell-based, human
Details: 3.3 μM compound; for Zscore_1 / Zscore_2: IL2 level, α-CD3/α-CD28/α-PD-1 beads; for Zscore_1: replicate 1; for Zscore_2: replicate 2; for Zscore_AVG: average of replicate Z scores
Procedure: PD-1-overexpressing Jurkat cells were plated at a concentration of 100,000 cells/well in a total volume of 80 μl. […] Dynabeads conjugated to α-CD3, α-CD28, and α-PD-1 antibodies were added in 20 for a final assay volume of 100 with a final compound concentration of 3.3 μM and an 8:1 bead:cell ratio. Beads were conjugated to α-CD3/α-CD28/control IgG and added to wells containing DMSO-treated cells as a positive control, while beads conjugated to α-CD3/α-CD28/α-PD1 were added to wells containing DMSO-treated cells as a negative control. Supernatants from each well were analyzed for IL2 levels by AlphaLISA (Perkin Elmers) according to the manufacturer's protocol. Average and standard deviation values were calculated from the PD-1 controls (DMSO-treated cells stimulated with α-CD3/α-CD28/α-PD-1 beads); hits were defined as compounds scoring at least 3 standard deviations from the mean of the controls.
In addition to known negative regulators of IL-2 production (e.g. glycogen synthase kinase-3α/β (GSK3α/β) (24,25)), this screen identified cyclin-dependent kinases 4 and 6 inhibitors (CDK4/6i) as top hits (Table 1).

| Compound | Zscore_1 | Zscore_2 | Zscore_AVG |
| --- | --- | --- | --- |
| Cc1ccc(S(=O)(=O)/C=C/C#N)cc1 [BAY 11-7082] | −3.877 | −4.461 | −4.169 |
| Ic1cccc(CSc2nnc(-c3ccncc3)o2)c1 [GSK-3b Inhibitor II] | −2.376 | −0.4154 | −1.396 |
| COc1ccc(-c2cnc3c(-c4ccsc4)cnn3c2)cc1 [VEGF Receptor 2 Kinase Inhibitor IV] | −1.795 | 1.512 | −0.1417 |
| COc1cc2ncnc(Nc3ccc(NC(=O)c4ccccc4)cc3)c2cc1OC [Aurora Kinase Inhibitor II] | −0.6024 | 2.958 | 1.178 |
| COC(=O)[C@@]1(O)C[C@H]2O[C@]1(C)n1c3ccccc3c3c4c(c5c6ccccc6n2c5c31)C(=O)NC4 [K-252a, Nocardiopsis sp.] | −4.42 | −6.58 | −5.5 |
| O=[N+]([O-])c1ccc(CNc2nc(NCc3cccc(C(F)(F)F)c3)nc3nc[nH]c23)cc1 [IP3K Inhibitor] | 1.006 | −0.0969 | 0.4547 |
| COc1cc2ncnc(Nc3ccc(OCc4ccccc4)cc3)c2cc1OC [EGFR/ErbB-2 Inhibitor] | 0.09156 | 4.015 | 2.053 |
| Tpl2 Kinase Inhibitor II | −2.398 | −4.19 | −3.294 |
| CCOc1nc(NC(=O)Cc2cc(OC)ccc2OC)cc(N)c1C#N [JNK Inhibitor VIII] | −1.284 | −2.969 | −2.126 |
| IKK Inhibitor VII | −6.154 | −3.033 | −4.594 |
| CN1C(=O)/C(=C2\Nc3ccccc3\C2=N/O)c2ccc(Br)cc21 [GSK-3 Inhibitor IX, Control, MeBIO] | 1.104 | 1.769 | 1.437 |
| O=C1NC(=O)c2c1c1c3ccccc3[nH]c1c1[nH]c3ccccc3c21 [Arcyriaflavin A, Synthetic] | 3.889 | 5.674 | 4.782 |
| CNc1cc2c(Nc3cccc(Br)c3)ncnc2cn1 [PD 158780] | 0.3787 | 0.8816 | 0.6302 |
| Cl.NCCCn1cc(C2=C(c3c[nH]c4ccccc34)C(=O)NC2=O)c2ccccc21 [Bisindolylmaleimide III, Hydrochloride] | −3.661 | −5.093 | −4.377 |
| p38 MAP Kinase Inhibitor VIII | −1.144 | −1.448 | −1.296 |
| Cn1c2ccccc2c2c3c(c4c5ccccc5n(CCC#N)c4c21)CNC3=O [G? 6976] | −6.424 | −4.191 | −5.308 |
| COc1cccc(-c2cc(=O)c3ccccc3o2)c1N [PD98059] | −1.781 | −1.614 | −1.698 |
| O=S(=O)(c1c(O)c(Cl)cc(Cl)c1Cl)c1c(O)c(Cl)cc(Cl)c1Cl [p38 MAP Kinase Inhibitor IV] | −0.6495 | 0.005311 | −0.3221 |
| CCOc1cc2ncnc(Nc3cccc(Br)c3)c2cc1OCC [Compound 56] | −1.072 | −2.222 | −1.647 |
| NC(=O)c1ccc2nc(-c3ccc(Oc4ccc(Cl)cc4)cc3)[nH]c2c1 [Chk2 Inhibitor II] | 2.673 | 1.942 | 2.307 |
| Nc1ccc(-c2cccc3c(=O)cc(N4CCOCC4)oc23)cc1 [LY 294002,4-NH2] | 3.33 | 7.54 | 5.435 |
| NS(=O)(=O)c1ccc(N/N=C2\C(=O)Nc3ccc(Br)cc32)cc1 [Cdk2 Inhibitor II] | −0.2096 | −0.6424 | −0.426 |
| CSc1nc(-c2ccnc(NC(C)c3ccccc3)c2)c(-c2ccc(F)cc2)[nH]1 (stereo not drawn) [p38 MAP Kinase Inhibitor III] | −0.7009 | 0.6426 | −0.02917 |
| CN(C)S(=O)(=O)c1ccc2c(c1)/C(=C/c1cc3c([nH]1)CCCC3)C(=O)N2 [SU6656] | 1.733 | 1.333 | 1.533 |
| COc1cc2nccc(Oc3ccc(NC(=S)NC(=O)c4ccccc4C)cc3)c2cc1OC [PDGF RTK Inhibitor] | −3.239 | −6.099 | −4.669 |

| Compound | Zscore_1 | Zscore_2 | Zscore_AVG |
| --- | --- | --- | --- |
| Cc1cncc2cccc(S(=O)(=O)N3CCCN(C(=O)CN)C[C@@H]3C)c12 [Rho Kinase Inhibitor IV] | −5.704 | −5.042 | −5.373 |
| Oc1ccc(-c2nc(-c3ccc(F)cc3)c(-c3ccncc3)[nH]2)cc1 [SB 202190] | −1.512 | −3.097 | −2.304 |
| CC(C)c1nn(-c2c(Cl)cccc2Cl)c2nc(Cc3ccc(OCCO)cc3)[nH]c(=O)c12 [Cdk/Crk Inhibitor] | −10.43 | −11.89 | −11.16 |
| Oc1cccc(-c2nc(N3CCOCC3)c3sccc3n2)c1 [PI 3-Kα Inhibitor IV] | 1.287 | 0.7223 | 1.005 |
| O=[N+]([O-])c1ccc(-c2nc(-c3ccc(F)cc3)c(-c3ccncc3)[nH]2)cc1 [PD 169316] | −0.1697 | 0.08497 | −0.04235 |
| O=C(Nc1ccc(-c2cn[nH]c2)cc1)C1COc2ccccc2O1 (stereo not drawn) [Rho Kinase Inhibitor V] | −0.6152 | −2.172 | −1.394 |
| COc1ccc(Cl)cc1NC(=O)Nc1cc(C)nc2ccccc12 [IGF-1R Inhibitor II] | 0.516 | −0.987 | −0.2355 |
| O=C(Nc1cc(C(F)(F)F)cc(C(F)(F)F)c1)c1cc(Cl)ccc1O [IKK-2 Inhibitor V] | −5.485 | −7.792 | −6.638 |
| PI 3-K&gamme;/CKII Inhibitor | −0.8209 | −0.5789 | −0.6999 |
| Cl.O=S(=O)(c1cccc2c(I)cccc12)N1CCCNCC1 [ML-7, Hydrochloride] | 2.906 | 0.08811 | 1.497 |
| N#CCCc1ccc2c(c1)-c1[nH]c3ccc([N+](=O)[O-])cc3c1CC(=O)N2 [Alsterpaullone, 2-Cyanoethyl] | −5.269 | −7.447 | −6.358 |
| O=C1c2ccccc2-c2n[nH]c3cccc1c23 [JNK Inhibitor II] | 0.4426 | 0.5814 | 0.512 |
| O=C1NC(=NCc2cccs2)S/C1=C\c1ccc2ncccc2c1 [Cdk1 Inhibitor IV, RO-3306] | −4.188 | −2.228 | −3.208 |
| O=C1NC(=O)/C(=C/c2ccc3nccnc3c2)S1 [PI 3-Kg Inhibitor] | 0.8957 | 2.23 | 1.563 |
| MEK1/2 Inhibitor II | −8.274 | −7.766 | −8.02 |
| COc1cc2ncn(-c3cc(OCc4ccccc4S(C)(=O)=O)c(C#N)s3)c2cc1OC [IKK-3 Inhibitor IX] | 3.754 | 2.454 | 3.104 |
| Cl.Cl.O=S(=O)(NCCNC/C=C/c1ccc(Br)cc1)c1cccc2cnccc12 [H-89, Dihydrochloride] | −3.268 | −0.4334 | −1.851 |
| N#Cc1cc([N+](=O)[O-])c2sc(C(N)=O)[n+]([O-])c2c1 [Polo-like Kinase Inhibitor II, BTO-1] | −1.795 | −0.518 | −1.156 |
| Nc1cccc(-c2cc3c(Oc4cccc(O)c4)ncnc3[nH]2)c1 [GSK-3b Inhibitor XII, TWS119] | −1.059 | −1.321 | −1.19 |
| O=C(Nc1cc(Cl)cc2c1[nH]c1cnccc12)c1cccnc1 [IKK Inhibitor X] | −4.959 | −5.349 | −5.154 |
| O=C1Nc2ccccc2/C1=C\c1c(Cl)[nH]c2ccccc12 [Cdk1 Inhibitor] | −0.7783 | −0.6137 | −0.696 |
| O=C1NC(=O)C(c2cn(CCCn3ccnc3)c3ccccc23)=C1Nc1ccccc1 [PKCb Inhibitor] | −3.512 | −5.04 | −4.276 |
| O=C(Nc1cccc(Nc2cc(Nc3cccc(C(F)(F)F)c3)ncn2)c1)C1CC1 [EGFR Inhibitor] | 2.026 | 1.568 | 1.797 |
| CC(C)N(CCC(=O)c1ccc2ccccc2c1)Cc1ccccc1 [JAK3 Inhibitor IV] | 0.2022 | 0.908 | 0.5551 |
